One series has as its system mast cells. Kind of series: Inhibition of histamine release from mast cells due to an antigen-antibody reaction (in vitro; ovalbumin-sensitized). Format: cell-based, Wister male rats. To be noted: Mast cell; rat peritoneal mast cells; antigenic ovalbumin 10^-4 g/ml; 5 min pre-incubation, 10 min incubation at 37° C.; corrected for spontaneous release; read-out: concentration showing 50% inhibition of histamine release.

Another series in a line: Acute toxicity (LD50). To be noted: in vivo.
Setting [1] is: ip, read-out: LD50 values (i.p.).
[2] abbreviates: po, read-out: LD50 values (p.o.).

The values below come from patent US4617292A, “Pharmaceutical compositions and method for inhibiting histamine release tocopheryl glycoside” (Sunstar Kabushiki Kaisha, priority 1984, dated 1986).

SMILES strings stand for the structures. Read-outs that look alike come from different tables or passages of the source. Bounds are passed on as bounds.

Usually LD50 stands for the dose expected to kill half of the subjects tested.

`Cc1c(C)c2c(c(C)c1OC1O[C@H](CO)[C@@H](O)[C@H](O)[C@H]1O)CCC(C)(CCCC(C)CCCC(C)CCCC(C)C)O2` (mixture of isomers) [dl-α-tocopherylglucoside, dl-α-Tocopherylglucoside]: the IC50 in the series on mast cells was approximately 50 µg/mL. The values for the LD50 in the series “Acute toxicity (LD50)” (setting [1]) and in “Acute toxicity (LD50)” (setting [2]) were more than 500 mg/kg and more than 5000 mg/kg, respectively.

Turning to `Cc1c(C)c2c(c(C)c1O[C@@H]1O[C@H](CO)[C@@H](O)[C@H](O)[C@@H]1O)CCC(C)(CCCC(C)CCCC(C)CCCC(C)C)O2` (mixture of isomers) [dl-α-tocopherylmannoside, dl-α-Tocopherylmannoside], the IC50 in the series with mast cells is approximately 15 µg/mL. The 50% lethal dose (LD50) in the series “Acute toxicity (LD50)” (setting [1]) is more than 500 mg/kg; in “Acute toxicity (LD50)” (setting [2]) it was more than 5000 mg/kg.
